Measurements as given in ChEMBL document CHEMBL4152321, “Synthesis and antiplasmodial activity of glyco-conjugate hybrids of phenylhydrazono-indolinones and glycosylated 1,2,3-triazolyl-methyl-indoline-2,3-diones” (Eur J Med Chem, 2018).

Assays:
[1] = Selectivity index, ratio of CC50 for African green monkey Vero cells to IC50 for chloroquine-sensitive Plasmodium falciparum 3D7 infected in human erythrocytes; format: toxicity, cell-based; settings: read-out: Ratio CC50/IC50
[2] = Selectivity index, ratio of CC50 for African green monkey Vero cells to IC50 for chloroquine-resistant Plasmodium falciparum K1 infected in human erythrocytes; format: toxicity, cell-based; settings: read-out: Ratio CC50/IC50
Plasmodium falciparum [3] = test: Antiplasmodial activity against chloroquine-resistant Plasmodium falciparum K1 infected in human erythrocytes after 72 hrs by SYBR Green 1 staining based fluorescence assay; format: functional, organism-based; settings: K1, 72 h
[4] = Cytotoxicity against African green monkey Vero cells after 3 days by resazurin dye based fluorescence assay; format: cell-based; settings: chlorocebus sabaeus
Plasmodium falciparum [5] = test: Antiplasmodial activity against chloroquine-sensitive Plasmodium falciparum 3D7 infected in human erythrocytes after 72 hrs by SYBR Green 1 staining based fluorescence assay; format: functional, organism-based; settings: 3D7, 72 h

SMILES | selectivity ratio [1] | selectivity ratio [2] | IC50 (Plasmodium falciparum [3]) [µM] | CC50 at 72 h [4] [µM] | IC50 (Plasmodium falciparum [5]) [µM]
CC(=O)C[C@H]1O[C@@H](On2cc(CN3C(=O)/C(=N\Nc4ccc(C#N)cc4)c4ccccc43)nn2)[C@H](OC(C)=O)[C@@H](OC(C)=O)[C@H]1OC(C)=O | 20.6 | 17.6 | 4.28 | 75.5 | 3.67
CC1(C)O[C@H]2O[C@H](Cn3cc(CN4C(=O)/C(=N\Nc5ccccc5)c5ccccc54)nn3)[C@H](O)[C@H]2O1 | 17.6 | 17.6 | 4.66 | 82.1 | 4.67
CC(=O)C[C@H]1O[C@@H](On2cc(CN3C(=O)/C(=N\Nc4ccc(F)cc4)c4ccccc43)nn2)[C@H](OC(C)=O)[C@@H](OC(C)=O)[C@@H]1OC(C)=O | 30.5 | 18.1 | 3.8 | 68.7 | 2.25
CC1(C)O[C@H]2[C@@H](O1)[C@@H](Cn1cc(CN3C(=O)/C(=N\Nc4ccc(C#N)cc4)c4ccccc43)nn1)O[C@@H]1OC(C)(C)O[C@@H]12 | 34.9 | – | 2.77 | 126 | 3.59
N#Cc1ccc(N/N=C2\C(=O)N(Cc3cn(O[C@@H]4O[C@H](CO)[C@@H](O)[C@H](O)[C@H]4O)nn3)c3ccccc32)cc1 | – | – | 7.01 | – | 7.78
CC(=O)C[C@H]1O[C@@H](On2cc(CN3C(=O)/C(=N\Nc4cccc(Cl)c4)c4ccccc43)nn2)[C@H](OC(C)=O)[C@@H](OC(C)=O)[C@H]1OC(C)=O | 35.6 | 45.5 | 1.93 | 87.9 | 2.47
CC(=O)C[C@H]1O[C@@H](On2cc(CN3C(=O)C(=O)c4ccccc43)nn2)[C@H](OC(C)=O)[C@@H](OC(C)=O)[C@H]1OC(C)=O | – | – | 8.07 | – | 8.4
COc1ccc(N/N=C2\C(=O)N(Cc3cn(O[C@@H]4O[C@H](CC(C)=O)[C@@H](OC(C)=O)[C@H](OC(C)=O)[C@H]4OC(C)=O)nn3)c3ccccc32)cc1 | 31.2 | 23.1 | 4.13 | 95.3 | 3.05
O=C1/C(=N\Nc2ccccc2)c2ccccc2N1Cc1cn(O[C@@H]2O[C@H](CO)[C@H](O)[C@H](O)[C@H]2O)nn1 | 17.4 | 9.6 | 8.68 | 83.4 | 4.8
CC1(C)O[C@H]2[C@@H](O1)[C@@H](Cn1cc(CN3C(=O)C(=O)c4ccccc43)nn1)O[C@@H]1OC(C)(C)O[C@@H]12 | – | – | 7.51 | – | 8.41
CC(=O)C[C@H]1O[C@@H](On2cc(CN3C(=O)/C(=N\Nc4ccccc4)c4ccccc43)nn2)[C@H](OC(C)=O)[C@@H](OC(C)=O)[C@H]1OC(C)=O | 18.6 | 15.8 | 4.13 | 65.2 | 3.5
CC1(C)O[C@H]2O[C@H](Cn3cc(CN4C(=O)/C(=N\Nc5ccc(C#N)cc5)c5ccccc54)nn3)[C@H](O)[C@H]2O1 | 21.8 | 30.8 | 3.4 | 105 | 4.79
O=C1/C(=N\Nc2ccc(Br)cc2)c2ccccc2N1Cc1cn(O[C@@H]2O[C@H](CO)[C@@H](O)[C@H](O)[C@H]2O)nn1 | – | – | 7.95 | – | 9.34
CC1(C)O[C@H]2[C@@H](O1)[C@@H](Cn1cc(CN3C(=O)/C(=N\Nc4ccc(Br)cc4)c4ccccc43)nn1)O[C@@H]1OC(C)(C)O[C@@H]12 | 60.7 | 73.9 | 1.61 | 119 | 1.96
CC1(C)O[C@H]2O[C@H](Cn3cc(CN4C(=O)/C(=N\Nc5ccc(F)cc5)c5ccccc54)nn3)[C@H](O)[C@H]2O1 | 21.2 | 21 | 3.99 | 83.8 | 3.08
O=C1/C(=N\Nc2ccc(F)cc2)c2ccccc2N1Cc1cn(O[C@@H]2O[C@H](CO)[C@@H](O)[C@H](O)[C@H]2O)nn1 | – | – | 8.53 | – | 8
CC(=O)C[C@H]1O[C@@H](On2cc(CN3C(=O)/C(=N\Nc4ccccc4)c4ccccc43)nn2)[C@H](OC(C)=O)[C@@H](OC(C)=O)[C@@H]1OC(C)=O | 28.9 | 15.1 | 7.11 | 108 | 3.73
COc1ccc(N/N=C2\C(=O)N(Cc3cn(O[C@@H]4O[C@H](CC(C)=O)[C@H](OC(C)=O)[C@H](OC(C)=O)[C@H]4OC(C)=O)nn3)c3ccccc32)cc1 | 49.2 | 20 | 3.12 | 62.5 | 1.27
CC1(C)O[C@H]2O[C@H](Cn3cc(CN4C(=O)/C(=N\Nc5ccc(Br)cc5)c5ccccc54)nn3)[C@H](O)[C@H]2O1 | 18 | 20.7 | 3.52 | 72.9 | 4.05

SMILES | selectivity ratio [1] | selectivity ratio [2] | IC50 (Plasmodium falciparum [3]) [µM] | CC50 at 72 h [4] [µM] | IC50 (Plasmodium falciparum [5]) [µM]
CC1(C)O[C@H]2[C@@H](O1)[C@@H](Cn1cc(CN3C(=O)/C(=N\Nc4ccc(F)cc4)c4ccccc43)nn1)O[C@@H]1OC(C)(C)O[C@@H]12 | 39.9 | 46.4 | 2.64 | 122 | 3.07
COc1ccc(N/N=C2\C(=O)N(Cc3cn(O[C@@H]4O[C@H](CO)[C@@H](O)[C@H](O)[C@H]4O)nn3)c3ccccc32)cc1 | 24.4 | 16.3 | 4.89 | 79.6 | 3.27
CC(=O)C[C@H]1O[C@@H](On2cc(CN3C(=O)/C(=N\Nc4ccc(F)cc4)c4ccccc43)nn2)[C@H](OC(C)=O)[C@@H](OC(C)=O)[C@H]1OC(C)=O | 32.2 | 26.2 | 3 | 78.6 | 2.44
CC(=O)C[C@H]1O[C@@H](On2cc(CN3C(=O)/C(=N\Nc4cccc(Cl)c4)c4ccccc43)nn2)[C@H](OC(C)=O)[C@@H](OC(C)=O)[C@@H]1OC(C)=O | 29.4 | 13.4 | 8.67 | 117 | 3.96
CC1(C)O[C@H]2O[C@H](Cn3cc(CN4C(=O)C(=O)c5ccccc54)nn3)[C@H](O)[C@H]2O1 | > 46.2 | > 58.8 | 3.4 | > 200 | 4.33
COc1ccc(N/N=C2\C(=O)N(Cc3cn(C[C@H]4O[C@@H]5OC(C)(C)O[C@@H]5[C@H]5OC(C)(C)O[C@H]54)nn3)c3ccccc32)cc1 | 64.2 | 46 | 2.29 | 105 | 1.64
CC(=O)C[C@H]1O[C@@H](On2cc(CN3C(=O)/C(=N\Nc4ccc(C#N)cc4)c4ccccc43)nn2)[C@H](OC(C)=O)[C@@H](OC(C)=O)[C@@H]1OC(C)=O | 22.6 | 13.2 | 5.72 | 75.4 | 3.33
O=C1/C(=N\Nc2ccccc2)c2ccccc2N1Cc1cn(O[C@@H]2O[C@H](CO)[C@@H](O)[C@H](O)[C@H]2O)nn1 | 18.8 | 10.9 | 8.11 | 88.5 | 4.7
CC(=O)C[C@H]1O[C@@H](On2cc(CN3C(=O)C(=O)c4ccccc43)nn2)[C@H](OC(C)=O)[C@@H](OC(C)=O)[C@@H]1OC(C)=O | 38.6 | < 13.7 | > 10 | 137 | 3.54
CC1(C)O[C@H]2[C@@H](O1)[C@@H](Cn1cc(CN3C(=O)/C(=N\Nc4ccccc4)c4ccccc43)nn1)O[C@@H]1OC(C)(C)O[C@@H]12 | 27.2 | 40.2 | 2.62 | 105 | 3.87
O=C1/C(=N\Nc2ccc(Br)cc2)c2ccccc2N1Cc1cn(O[C@@H]2O[C@H](CO)[C@H](O)[C@H](O)[C@H]2O)nn1 | 25.8 | 19.5 | 4.68 | 91.5 | 3.59
CC(=O)C[C@H]1O[C@@H](On2cc(CN3C(=O)/C(=N\Nc4ccc(Br)cc4)c4ccccc43)nn2)[C@H](OC(C)=O)[C@@H](OC(C)=O)[C@H]1OC(C)=O | 39.9 | 28.6 | 2.91 | 83.4 | 2.09
CC1(C)O[C@H]2O[C@H](Cn3cc(CN4C(=O)/C(=N\Nc5cccc(Cl)c5)c5ccccc54)nn3)[C@H](O)[C@H]2O1 | 15.7 | 20.5 | 3.42 | 70 | 4.47
CC(=O)C[C@H]1O[C@@H](On2cc(CN3C(=O)/C(=N\Nc4ccc(Br)cc4)c4ccccc43)nn2)[C@H](OC(C)=O)[C@@H](OC(C)=O)[C@@H]1OC(C)=O | 30.7 | 30.3 | 3.84 | 116 | 3.79
COc1ccc(N/N=C2\C(=O)N(Cc3cn(C[C@H]4O[C@@H]5OC(C)(C)O[C@@H]5[C@H]4O)nn3)c3ccccc32)cc1 | 19.6 | 22.7 | 3.28 | 74.5 | 3.8
CC1(C)O[C@H]2[C@@H](O1)[C@@H](Cn1cc(CN3C(=O)/C(=N\Nc4cccc(Cl)c4)c4ccccc43)nn1)O[C@@H]1OC(C)(C)O[C@@H]12 | 36.2 | 47 | 2.49 | 117 | 3.23
O=C1/C(=N\Nc2cccc(Cl)c2)c2ccccc2N1Cc1cn(O[C@@H]2O[C@H](CO)[C@@H](O)[C@H](O)[C@H]2O)nn1 | – | – | 7.62 | – | 6.73
CCN(CC)CCCC(C)Nc1ccnc2cc(Cl)ccc12 (configuration not stated) [CHLOROQUINE] | – | – | – | > 500 | –
